Measurements from ChEMBL document CHEMBL4834430, “Design and Structure-Activity Relationships of Isothiocyanates as Potent and Selective N-Acylethanolamine-Hydrolyzing Acid Amidase Inhibitors” (J Med Chem, 2021).
The source made the active and inactive calls. The calls are words filed in the database; no cut-off is given here.

What was measured:
[1] = MRT in CD-1 mouse plasma at 2 mg/kg, iv measured up to 8 hrs; assay type: ADME, organism-based
[2] = Half life in rat liver microsomes at 1 uM in presence of NADPH by LC-MS/MS analysis; assay type: ADME, Microsome
[3] = target: Sodium-dependent serotonin transporter (Homo sapiens) (UniProt P31645); experiment: Inhibition of SERT (unknown origin) at 10 uM
[4] = Drug concentration in brain of CD-1 mouse at 2 mg/kg, iv administered as single cassette dose measured after 15 mins; assay type: ADME, organism-based; conditions: read-out: Ct
Cathepsin K = target: T1, Cathepsin K (Homo sapiens, UniProt P43235); experiment: Inhibition of recombinant human Cathepsin K using Z-Phe-Arg-AMC as fluorogenic substrate preincubated for 120 mins followed by substrate addition by fluorescence assay
T1 sequence (P43235 whole entry): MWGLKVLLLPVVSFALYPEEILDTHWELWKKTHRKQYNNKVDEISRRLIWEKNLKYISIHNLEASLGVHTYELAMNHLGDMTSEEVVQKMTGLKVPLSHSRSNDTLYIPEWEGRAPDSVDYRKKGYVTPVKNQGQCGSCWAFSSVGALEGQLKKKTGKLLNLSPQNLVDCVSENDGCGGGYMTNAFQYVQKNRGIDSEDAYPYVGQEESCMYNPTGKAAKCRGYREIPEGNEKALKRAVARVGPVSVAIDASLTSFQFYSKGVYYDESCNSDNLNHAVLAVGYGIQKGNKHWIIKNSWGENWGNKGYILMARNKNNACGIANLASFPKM

[5] = target: T2, N-acylethanolamine-hydrolyzing acid amidase (Homo sapiens, UniProt Q02083); experiment: Inhibition of human NAAA using N-(4-methyl coumarin)-palmitamide as fluorogenic substrate preincubated for 90 mins followed by substrate addition by fluorescence assay
T2 sequence (Q02083 whole entry): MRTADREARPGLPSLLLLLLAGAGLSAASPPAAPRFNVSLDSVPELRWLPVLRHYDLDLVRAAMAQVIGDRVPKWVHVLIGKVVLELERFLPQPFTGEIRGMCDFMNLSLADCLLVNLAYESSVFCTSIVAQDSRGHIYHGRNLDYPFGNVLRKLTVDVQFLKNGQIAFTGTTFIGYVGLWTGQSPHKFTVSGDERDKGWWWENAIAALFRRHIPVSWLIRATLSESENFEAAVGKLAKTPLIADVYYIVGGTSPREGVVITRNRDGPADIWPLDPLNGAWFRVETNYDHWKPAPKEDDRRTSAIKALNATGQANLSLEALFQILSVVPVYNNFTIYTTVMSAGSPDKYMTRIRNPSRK

[6] = Half life in CD-1 mouse plasma at 8 mg/kg, po measured up to 8 hrs; assay type: ADME, organism-based
Cytochrome P450 1A2 = target: T3, Cytochrome P450 1A2 (Homo sapiens, UniProt P05177); experiment: Inhibition of CYP1A2 (unknown origin); assay type: ADME
T3 sequence (P05177 whole entry): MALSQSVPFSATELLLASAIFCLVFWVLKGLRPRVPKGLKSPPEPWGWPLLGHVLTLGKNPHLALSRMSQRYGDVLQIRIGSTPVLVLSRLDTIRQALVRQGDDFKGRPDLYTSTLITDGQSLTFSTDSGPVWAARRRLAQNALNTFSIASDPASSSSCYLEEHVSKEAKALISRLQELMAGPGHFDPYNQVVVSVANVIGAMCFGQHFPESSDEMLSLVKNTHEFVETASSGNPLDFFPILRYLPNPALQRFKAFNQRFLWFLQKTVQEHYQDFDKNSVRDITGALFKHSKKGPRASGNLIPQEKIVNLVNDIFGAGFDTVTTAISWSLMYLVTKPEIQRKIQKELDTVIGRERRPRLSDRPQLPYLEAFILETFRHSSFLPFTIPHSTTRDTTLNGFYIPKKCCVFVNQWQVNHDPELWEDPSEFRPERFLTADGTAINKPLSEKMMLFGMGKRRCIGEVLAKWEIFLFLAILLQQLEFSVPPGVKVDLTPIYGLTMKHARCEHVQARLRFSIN

Sequence of Sodium-dependent serotonin transporter (Homo sapiens) (P31645 whole entry, looked up): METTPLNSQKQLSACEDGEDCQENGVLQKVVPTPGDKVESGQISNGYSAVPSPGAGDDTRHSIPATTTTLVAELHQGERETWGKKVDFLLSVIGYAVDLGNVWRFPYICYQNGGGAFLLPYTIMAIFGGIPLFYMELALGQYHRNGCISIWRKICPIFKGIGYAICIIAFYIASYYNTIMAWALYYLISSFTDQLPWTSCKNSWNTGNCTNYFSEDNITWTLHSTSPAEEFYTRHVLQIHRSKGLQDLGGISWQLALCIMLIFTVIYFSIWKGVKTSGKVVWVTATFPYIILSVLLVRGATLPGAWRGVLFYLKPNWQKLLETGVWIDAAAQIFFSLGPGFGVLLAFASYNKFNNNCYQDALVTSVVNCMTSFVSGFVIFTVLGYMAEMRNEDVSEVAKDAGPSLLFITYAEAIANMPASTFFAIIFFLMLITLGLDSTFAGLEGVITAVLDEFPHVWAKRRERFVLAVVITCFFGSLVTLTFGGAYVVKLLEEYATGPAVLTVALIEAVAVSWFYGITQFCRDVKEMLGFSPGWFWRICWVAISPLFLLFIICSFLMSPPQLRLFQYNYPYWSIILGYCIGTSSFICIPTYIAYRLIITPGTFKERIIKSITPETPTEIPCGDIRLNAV

COc1ccc(-c2ccc(CO[C@H]3C[C@@H](N=C=S)C3)nc2)cc1F
MRT [1]: 20.3 min
half-life at 1 µM [2]: 19.2 min
inhibition [3]: inactive
concentration at 0.25 h [4]: 873 ng/g
IC50 (Cathepsin K): 120 nM
IC50 [5]: 20 nM
half-life [6]: 31.5 min
IC50 (Cytochrome P450 1A2): 1800 nM
